The assay addresses T1, human GPR119 (hGPR119) (Homo sapiens, UniProt Q8TDV5).
T1 construct: expressed in transfected cells
T1 sequence (Q8TDV5 1-335): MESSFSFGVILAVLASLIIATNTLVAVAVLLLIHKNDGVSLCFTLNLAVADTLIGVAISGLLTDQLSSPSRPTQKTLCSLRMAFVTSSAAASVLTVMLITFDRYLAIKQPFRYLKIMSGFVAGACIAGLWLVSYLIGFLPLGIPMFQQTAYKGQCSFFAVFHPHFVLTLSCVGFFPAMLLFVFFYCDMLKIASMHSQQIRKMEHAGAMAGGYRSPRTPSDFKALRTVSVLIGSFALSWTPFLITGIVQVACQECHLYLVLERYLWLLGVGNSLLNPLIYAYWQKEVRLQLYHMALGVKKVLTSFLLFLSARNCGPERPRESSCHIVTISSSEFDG
Nature of the assay: cAMP accumulation assay (Cisbio cAMP Gs dynamic HTRF kit) in CHO-K1 cells stably expressing human GPR119. Particulars: 4-parameter fit; for Emax: 1 h, % activity normalized to Max and Min controls; for EC50: 60 minutes at 37° C. Type of assay: cell-based. Put shortly: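 Read-out is HTRF 665/620 nm ratio after 1 h detection at ambient temperature, converted to % activity against positive and negative controls, EC50 and Max activity by 4-parameter fit. Compounds were titrated onto ~10,000 thawed hGPR119-CHO-K1 cells/well for 60 min at 37° C/5% CO2.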
For orientation: cAMP levels reflect the balance of adenylyl cyclase and phosphodiesterase activity.

Data on six molecules can be found in patent US20240217983A1, “GPR119 AGONISTS” (Kallyope, Inc., priority 2021, published 2024).

Usually Emax stands for the greatest response seen or fitted, relative to the assay's reference. The term EC50 denotes the concentration at which the effect is half-maximal. A higher EC50 goes with a need for much substance. `O=C(Cc1ccc(OCCC2CC3(CCN(c4ncc(Cl)cn4)CC3)C2)cc1F)N1CCN(C[C@H](O)[C@@H](O)[C@H](O)[C@H](O)CO)CC1` [Example 110, 2-(4-(2-(7-(5-chloropyrimidin-2-yl)-7-azaspiro[3.5]nonan-2-yl)ethoxy)-2-fluorophenyl)-1-(4-((2S,3R,4R,5R)-2,3,4,5,6-pentahydroxyhexyl)piperazin-1-yl)ethan-1-one]: the Emax is 100 to 130% and the concentration for a half-maximal effect (EC50) is 100 to 1000 nM.
In the same order, the values of `O=C(Cc1ccc(OCCCC2CC3(CCN(c4ncc(Cl)cn4)CC3)C2)cc1F)N1CCN(C[C@H](O)[C@@H](O)[C@H](O)[C@H](O)CO)CC1` [Example 111, 2-(4-(3-(7-(5-chloropyrimidin-2-yl)-7-azaspiro[3.5]nonan-2-yl)propoxy)-2-fluorophenyl)-1-(4-((2S,3R,4R,5R)-2,3,4,5,6-pentahydroxyhexyl)piperazin-1-yl)ethan-1-one] are 100 to 130% and not above 100 nM.
For `O=C(Cc1ccc(OCCCCC2CC3(CCN(c4ncc(Cl)cn4)CC3)C2)cc1F)N1CCN(C[C@H](O)[C@@H](O)[C@H](O)[C@H](O)CO)CC1` [Example 112, 2-(4-(4-(7-(5-chloropyrimidin-2-yl)-7-azaspiro[3.5]nonan-2-yl)butoxy)-2-fluorophenyl)-1-(4-((2S,3R,4R,5R)-2,3,4,5,6-pentahydroxyhexyl)piperazin-1-yl)ethan-1-one] the same measures were 100 to 130% and 100 to 1000 nM.
In the same order, the values of `O=C(Cc1ccc(OCCC2CCC23CCN(c2ncc(Cl)cn2)CC3)cc1F)N1CCN(C[C@H](O)[C@@H](O)[C@H](O)[C@H](O)CO)CC1` (stereo partly drawn) [Example 113, 2-(4-(2-(7-(5-chloropyrimidin-2-yl)-7-azaspiro[3.5]nonan-1-yl)ethoxy)-2-fluorophenyl)-1-(4-((2S,3R,4R,5R)-2,3,4,5,6-pentahydroxyhexyl)piperazin-1-yl)ethan-1-one] are 50 to 100% and more than 10000 nM.
In the case of `O=C(Cc1ccc(OCC2CC(C3CCN(c4ncc(Cl)cn4)CC3)C2)cc1F)N1CCN(C[C@H](O)[C@@H](O)[C@H](O)[C@H](O)CO)CC1` (stereo partly drawn) [Example 114, 2-(4-((3-(1-(5-chloropyrimidin-2-yl)piperidin-4-yl)cyclobutyl)methoxy)-2-fluorophenyl)-1-(4-((2S,3R,4R,5R)-2,3,4,5,6-pentahydroxyhexyl)piperazin-1-yl)ethan-1-one], the Emax was 100 to 130% and the 50% effective concentration (EC50) is not above 100 nM.
As for `O=C(Cc1ccc(OCCC2CC(C3CCN(c4ncc(Cl)cn4)CC3)C2)cc1F)N1CCN(C[C@H](O)[C@@H](O)[C@H](O)[C@H](O)CO)CC1` (stereo partly drawn) [Example 115, 2-(4-(2-(3-(1-(5-chloropyrimidin-2-yl)piperidin-4-yl)cyclobutyl)ethoxy)-2-fluorophenyl)-1-(4-((2S,3R,4R,5R)-2,3,4,5,6-pentahydroxyhexyl)piperazin-1-yl)ethan-1-one], the Emax was in the range of 100 to 130% and the EC50 fell in the range of 100 to 1000 nM.
